Key:
[1] = target: T1, Serine/threonine-protein kinase Sgk1 (Homo sapiens) (UniProt O00141); experiment: Inhibition of SGK1 expressed in Escherichia coli or baculovirus-infected insect cells at 400 uM by IMAP assay
T1 sequence (whole entry): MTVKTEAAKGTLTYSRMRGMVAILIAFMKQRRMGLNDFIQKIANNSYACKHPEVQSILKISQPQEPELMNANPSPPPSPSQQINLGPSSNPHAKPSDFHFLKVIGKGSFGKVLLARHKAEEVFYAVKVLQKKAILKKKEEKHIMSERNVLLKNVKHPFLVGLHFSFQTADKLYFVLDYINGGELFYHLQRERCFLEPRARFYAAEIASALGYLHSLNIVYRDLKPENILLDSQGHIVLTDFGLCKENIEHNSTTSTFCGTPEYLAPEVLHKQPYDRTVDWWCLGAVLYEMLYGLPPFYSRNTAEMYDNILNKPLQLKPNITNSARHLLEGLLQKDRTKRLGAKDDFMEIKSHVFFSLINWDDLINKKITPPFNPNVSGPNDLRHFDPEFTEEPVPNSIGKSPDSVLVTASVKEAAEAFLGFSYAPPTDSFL

[2] = target: 3-phosphoinositide-dependent protein kinase 1 (Homo sapiens) (UniProt O15530); experiment: Inhibition of PDK1 expressed in Escherichia coli or baculovirus-infected insect cells using gamma-[33P]ATP at 400 uM by scintillation proximity assay
[3] = target: Aurora kinase B (Homo sapiens) (UniProt Q96GD4); experiment: Inhibition of AurB expressed in Escherichia coli or baculovirus-infected insect cells at 400 uM by IMAP assay
[4] = target: Receptor-interacting serine/threonine-protein kinase 2 (Homo sapiens) (UniProt O43353); experiment: Inhibition of RIP2 expressed in Escherichia coli or baculovirus-infected insect cells at 400 uM by fluorescence polarization assay
[5] = target: RAC-beta serine/threonine-protein kinase (Homo sapiens) (UniProt P31751); experiment: Inhibition of AKT2 expressed in Escherichia coli or baculovirus-infected insect cells using gamma-[33P]ATP at 400 uM by scintillation proximity assay
[6] = target: T2, Inhibitor of nuclear factor kappa-B kinase subunit beta (Homo sapiens) (UniProt O14920); experiment: Inhibition of IKK-beta expressed in Escherichia coli or baculovirus-infected insect cells at 667 uM by TR-FRET assay
T2 sequence (whole entry): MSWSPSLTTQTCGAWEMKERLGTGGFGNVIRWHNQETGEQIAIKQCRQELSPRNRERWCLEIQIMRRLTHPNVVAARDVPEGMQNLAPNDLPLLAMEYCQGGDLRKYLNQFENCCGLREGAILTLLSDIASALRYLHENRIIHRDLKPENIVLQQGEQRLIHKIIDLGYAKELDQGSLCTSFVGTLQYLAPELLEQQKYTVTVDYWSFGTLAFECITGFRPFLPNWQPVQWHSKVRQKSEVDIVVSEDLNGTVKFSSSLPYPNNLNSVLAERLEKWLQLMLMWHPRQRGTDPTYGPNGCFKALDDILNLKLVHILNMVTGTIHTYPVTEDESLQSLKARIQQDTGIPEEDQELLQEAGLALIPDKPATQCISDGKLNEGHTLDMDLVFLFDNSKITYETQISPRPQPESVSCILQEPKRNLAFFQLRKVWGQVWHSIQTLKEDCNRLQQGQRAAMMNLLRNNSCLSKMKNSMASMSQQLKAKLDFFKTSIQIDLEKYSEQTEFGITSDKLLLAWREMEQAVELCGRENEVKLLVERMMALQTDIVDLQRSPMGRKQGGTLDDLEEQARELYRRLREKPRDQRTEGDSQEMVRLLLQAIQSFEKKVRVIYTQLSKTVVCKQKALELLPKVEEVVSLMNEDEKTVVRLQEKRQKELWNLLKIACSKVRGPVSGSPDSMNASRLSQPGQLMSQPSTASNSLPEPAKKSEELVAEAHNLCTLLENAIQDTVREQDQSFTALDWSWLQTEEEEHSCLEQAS

[7] = target: Serine/threonine-protein kinase PAK 2 (Homo sapiens) (UniProt Q13177); experiment: Inhibition of PAK2 expressed in Escherichia coli or baculovirus-infected insect cells at 400 uM by IMAP assay
[8] = target: Phosphatidylinositol 4,5-bisphosphate 3-kinase catalytic subunit gamma isoform (Homo sapiens) (UniProt P48736); experiment: Inhibition of PI3Kgamma expressed in Escherichia coli or baculovirus-infected insect cells at 667 uM by fluorescence polarization assay
[9] = target: Receptor tyrosine-protein kinase erbB-2 (Homo sapiens) (UniProt P04626); experiment: Inhibition of ErbB2 expressed in Escherichia coli or baculovirus-infected insect cells at 400 uM by TR-FRET assay
[10] = target: Focal adhesion kinase 1 (Homo sapiens) (UniProt Q05397); experiment: Inhibition of FAK expressed in Escherichia coli or baculovirus-infected insect cells at 400 uM by TR-FRET assay
[11] = target: Tyrosine-protein kinase Fes/Fps (Homo sapiens) (UniProt P07332); experiment: Inhibition of FES expressed in Escherichia coli or baculovirus-infected insect cells using ATP as substrate at 400 uM by fluorescence polarization assay
[12] = target: T3, Aurora kinase A (Homo sapiens) (UniProt O14965); experiment: Inhibition of AurA expressed in Escherichia coli or baculovirus-infected insect cells at 400 uM by IMAP assay
T3 sequence (whole entry): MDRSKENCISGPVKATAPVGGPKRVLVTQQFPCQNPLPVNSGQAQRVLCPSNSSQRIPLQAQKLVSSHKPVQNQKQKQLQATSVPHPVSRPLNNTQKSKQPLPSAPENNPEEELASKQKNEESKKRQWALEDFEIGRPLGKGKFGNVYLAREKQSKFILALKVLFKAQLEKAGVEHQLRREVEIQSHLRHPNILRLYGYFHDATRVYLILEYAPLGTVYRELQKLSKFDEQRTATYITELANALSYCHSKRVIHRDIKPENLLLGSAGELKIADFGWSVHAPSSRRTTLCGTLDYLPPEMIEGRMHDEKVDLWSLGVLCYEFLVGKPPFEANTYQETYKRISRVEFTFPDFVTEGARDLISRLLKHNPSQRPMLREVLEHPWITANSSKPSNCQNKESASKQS

[13] = target: Tyrosine-protein kinase SYK (Homo sapiens, UniProt P43405); experiment: Inhibition of SYK expressed in Escherichia coli or baculovirus-infected insect cells at 667 uM by TR-FRET assay
[14] = target: Epidermal growth factor receptor (Homo sapiens) (UniProt P00533); experiment: Inhibition of EGFR expressed in Escherichia coli or baculovirus-infected insect cells at 400 uM by TR-FRET assay
[15] = target: Phosphatidylinositol 4,5-bisphosphate 3-kinase catalytic subunit alpha isoform (Homo sapiens) (UniProt P42336); experiment: Inhibition of PI3Kalpha expressed in Escherichia coli or baculovirus-infected insect cells using gamma-[33P]ATP at 400 uM by scintillation proximity assay
[16] = target: Rho-associated protein kinase 1 (Homo sapiens) (UniProt Q13464); experiment: Inhibition of ROCK1 expressed in Escherichia coli or baculovirus-infected insect cells at 400 uM by IMAP assay
Rho-associated protein kinase 1 (Homo sapiens), sequence (Q13464 2-1354 limits assumed): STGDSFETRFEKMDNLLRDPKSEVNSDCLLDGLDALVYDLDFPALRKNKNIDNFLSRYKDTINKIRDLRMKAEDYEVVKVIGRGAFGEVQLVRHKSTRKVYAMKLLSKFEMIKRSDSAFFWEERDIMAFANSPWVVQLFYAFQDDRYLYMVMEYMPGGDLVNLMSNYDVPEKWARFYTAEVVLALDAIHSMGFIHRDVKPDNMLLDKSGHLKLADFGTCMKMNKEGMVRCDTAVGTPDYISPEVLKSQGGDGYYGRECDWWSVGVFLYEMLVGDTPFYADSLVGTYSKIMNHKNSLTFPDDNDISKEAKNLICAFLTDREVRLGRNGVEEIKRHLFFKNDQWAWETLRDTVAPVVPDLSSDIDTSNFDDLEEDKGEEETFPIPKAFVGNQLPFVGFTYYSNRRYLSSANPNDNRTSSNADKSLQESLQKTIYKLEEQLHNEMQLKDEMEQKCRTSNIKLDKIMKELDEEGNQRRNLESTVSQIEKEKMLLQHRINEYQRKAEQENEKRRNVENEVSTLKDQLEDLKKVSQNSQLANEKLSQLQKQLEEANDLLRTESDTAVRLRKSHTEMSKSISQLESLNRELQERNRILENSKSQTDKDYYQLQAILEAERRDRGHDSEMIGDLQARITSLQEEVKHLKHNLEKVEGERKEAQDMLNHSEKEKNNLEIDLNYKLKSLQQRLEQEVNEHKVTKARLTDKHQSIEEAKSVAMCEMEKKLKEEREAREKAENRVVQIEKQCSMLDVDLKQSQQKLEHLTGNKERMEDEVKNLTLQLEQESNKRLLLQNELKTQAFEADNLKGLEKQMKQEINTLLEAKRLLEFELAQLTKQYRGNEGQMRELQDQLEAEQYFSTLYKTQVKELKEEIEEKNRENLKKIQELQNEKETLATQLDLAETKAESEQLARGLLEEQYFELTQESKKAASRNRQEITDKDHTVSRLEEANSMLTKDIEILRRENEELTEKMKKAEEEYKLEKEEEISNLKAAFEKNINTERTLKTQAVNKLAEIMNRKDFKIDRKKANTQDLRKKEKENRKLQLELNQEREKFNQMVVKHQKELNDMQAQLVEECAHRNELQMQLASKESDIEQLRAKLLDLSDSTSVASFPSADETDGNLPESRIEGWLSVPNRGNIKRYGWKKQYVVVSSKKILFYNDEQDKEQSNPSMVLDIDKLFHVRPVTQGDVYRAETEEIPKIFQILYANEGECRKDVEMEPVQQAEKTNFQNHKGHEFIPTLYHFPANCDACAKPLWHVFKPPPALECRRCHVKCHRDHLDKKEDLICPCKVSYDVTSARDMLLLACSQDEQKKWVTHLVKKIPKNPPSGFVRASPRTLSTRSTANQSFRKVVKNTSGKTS

Phosphatidylinositol 4,5-bisphosphate 3-kinase catalytic subunit alpha isoform (Homo sapiens), sequence (P42336 whole entry, canonical isoform): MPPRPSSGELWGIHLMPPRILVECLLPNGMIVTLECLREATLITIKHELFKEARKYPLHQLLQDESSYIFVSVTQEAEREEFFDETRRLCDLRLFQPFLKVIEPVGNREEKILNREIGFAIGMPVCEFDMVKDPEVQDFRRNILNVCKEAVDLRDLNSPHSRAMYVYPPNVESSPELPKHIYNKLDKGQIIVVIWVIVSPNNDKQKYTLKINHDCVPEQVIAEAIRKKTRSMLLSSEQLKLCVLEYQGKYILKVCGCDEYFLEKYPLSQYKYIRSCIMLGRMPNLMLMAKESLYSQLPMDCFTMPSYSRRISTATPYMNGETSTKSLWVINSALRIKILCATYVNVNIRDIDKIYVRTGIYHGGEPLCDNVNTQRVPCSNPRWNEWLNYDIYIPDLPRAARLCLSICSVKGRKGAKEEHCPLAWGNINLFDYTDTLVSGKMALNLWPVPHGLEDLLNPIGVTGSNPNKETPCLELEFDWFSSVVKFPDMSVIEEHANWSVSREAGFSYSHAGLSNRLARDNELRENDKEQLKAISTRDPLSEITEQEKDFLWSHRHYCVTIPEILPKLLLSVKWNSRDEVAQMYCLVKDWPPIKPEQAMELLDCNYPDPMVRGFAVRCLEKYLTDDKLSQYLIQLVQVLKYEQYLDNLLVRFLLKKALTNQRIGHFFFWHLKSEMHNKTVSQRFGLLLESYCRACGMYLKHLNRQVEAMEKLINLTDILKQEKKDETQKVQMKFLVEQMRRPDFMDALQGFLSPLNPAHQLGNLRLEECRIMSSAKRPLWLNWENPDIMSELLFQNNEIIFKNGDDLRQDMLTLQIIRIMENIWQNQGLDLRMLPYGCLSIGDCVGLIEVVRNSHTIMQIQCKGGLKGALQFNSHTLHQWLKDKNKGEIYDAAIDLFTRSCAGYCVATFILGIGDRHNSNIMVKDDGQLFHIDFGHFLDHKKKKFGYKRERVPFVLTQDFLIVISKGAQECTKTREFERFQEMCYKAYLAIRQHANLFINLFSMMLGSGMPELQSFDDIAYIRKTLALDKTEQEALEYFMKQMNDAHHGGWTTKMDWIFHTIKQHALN
3-phosphoinositide-dependent protein kinase 1 (Homo sapiens), sequence (O15530 whole entry, looked up): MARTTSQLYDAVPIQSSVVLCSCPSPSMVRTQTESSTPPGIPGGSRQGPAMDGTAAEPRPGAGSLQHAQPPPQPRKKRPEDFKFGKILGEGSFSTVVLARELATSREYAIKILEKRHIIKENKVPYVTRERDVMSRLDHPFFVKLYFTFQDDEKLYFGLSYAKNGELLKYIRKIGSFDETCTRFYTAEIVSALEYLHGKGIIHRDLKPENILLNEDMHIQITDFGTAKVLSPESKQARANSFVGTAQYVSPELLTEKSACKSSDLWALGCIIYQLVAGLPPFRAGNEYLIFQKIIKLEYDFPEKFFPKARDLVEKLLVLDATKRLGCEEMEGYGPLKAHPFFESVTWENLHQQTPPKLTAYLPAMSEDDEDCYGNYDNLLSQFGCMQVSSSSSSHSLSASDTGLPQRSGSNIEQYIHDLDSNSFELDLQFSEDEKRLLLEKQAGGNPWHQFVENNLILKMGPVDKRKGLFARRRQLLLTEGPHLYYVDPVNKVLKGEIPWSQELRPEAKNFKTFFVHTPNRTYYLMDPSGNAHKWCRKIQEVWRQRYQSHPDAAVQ
Tyrosine-protein kinase Fes/Fps (Homo sapiens), sequence (P07332 whole entry): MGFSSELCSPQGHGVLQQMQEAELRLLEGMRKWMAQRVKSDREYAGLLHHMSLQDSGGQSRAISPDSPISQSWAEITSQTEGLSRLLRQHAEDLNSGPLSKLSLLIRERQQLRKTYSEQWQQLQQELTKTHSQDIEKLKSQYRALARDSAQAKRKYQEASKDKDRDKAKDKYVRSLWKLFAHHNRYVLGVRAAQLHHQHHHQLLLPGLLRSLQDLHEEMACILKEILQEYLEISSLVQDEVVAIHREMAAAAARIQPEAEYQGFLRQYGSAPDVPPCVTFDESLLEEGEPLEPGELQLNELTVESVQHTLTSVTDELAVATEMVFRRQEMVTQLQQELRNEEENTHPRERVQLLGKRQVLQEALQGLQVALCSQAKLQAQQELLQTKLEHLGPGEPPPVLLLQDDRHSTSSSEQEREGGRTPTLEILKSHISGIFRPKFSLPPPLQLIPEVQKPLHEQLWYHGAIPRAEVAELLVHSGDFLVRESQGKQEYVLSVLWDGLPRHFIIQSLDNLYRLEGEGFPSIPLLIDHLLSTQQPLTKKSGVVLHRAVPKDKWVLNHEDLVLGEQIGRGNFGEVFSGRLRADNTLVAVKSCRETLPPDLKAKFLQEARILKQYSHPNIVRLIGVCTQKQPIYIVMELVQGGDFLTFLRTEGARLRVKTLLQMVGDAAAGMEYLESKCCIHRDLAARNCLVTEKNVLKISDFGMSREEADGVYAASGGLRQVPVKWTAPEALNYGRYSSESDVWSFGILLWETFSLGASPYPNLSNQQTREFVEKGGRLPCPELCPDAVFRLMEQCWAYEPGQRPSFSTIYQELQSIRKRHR
Focal adhesion kinase 1 (Homo sapiens), sequence (Q05397 2-1052 limits assumed): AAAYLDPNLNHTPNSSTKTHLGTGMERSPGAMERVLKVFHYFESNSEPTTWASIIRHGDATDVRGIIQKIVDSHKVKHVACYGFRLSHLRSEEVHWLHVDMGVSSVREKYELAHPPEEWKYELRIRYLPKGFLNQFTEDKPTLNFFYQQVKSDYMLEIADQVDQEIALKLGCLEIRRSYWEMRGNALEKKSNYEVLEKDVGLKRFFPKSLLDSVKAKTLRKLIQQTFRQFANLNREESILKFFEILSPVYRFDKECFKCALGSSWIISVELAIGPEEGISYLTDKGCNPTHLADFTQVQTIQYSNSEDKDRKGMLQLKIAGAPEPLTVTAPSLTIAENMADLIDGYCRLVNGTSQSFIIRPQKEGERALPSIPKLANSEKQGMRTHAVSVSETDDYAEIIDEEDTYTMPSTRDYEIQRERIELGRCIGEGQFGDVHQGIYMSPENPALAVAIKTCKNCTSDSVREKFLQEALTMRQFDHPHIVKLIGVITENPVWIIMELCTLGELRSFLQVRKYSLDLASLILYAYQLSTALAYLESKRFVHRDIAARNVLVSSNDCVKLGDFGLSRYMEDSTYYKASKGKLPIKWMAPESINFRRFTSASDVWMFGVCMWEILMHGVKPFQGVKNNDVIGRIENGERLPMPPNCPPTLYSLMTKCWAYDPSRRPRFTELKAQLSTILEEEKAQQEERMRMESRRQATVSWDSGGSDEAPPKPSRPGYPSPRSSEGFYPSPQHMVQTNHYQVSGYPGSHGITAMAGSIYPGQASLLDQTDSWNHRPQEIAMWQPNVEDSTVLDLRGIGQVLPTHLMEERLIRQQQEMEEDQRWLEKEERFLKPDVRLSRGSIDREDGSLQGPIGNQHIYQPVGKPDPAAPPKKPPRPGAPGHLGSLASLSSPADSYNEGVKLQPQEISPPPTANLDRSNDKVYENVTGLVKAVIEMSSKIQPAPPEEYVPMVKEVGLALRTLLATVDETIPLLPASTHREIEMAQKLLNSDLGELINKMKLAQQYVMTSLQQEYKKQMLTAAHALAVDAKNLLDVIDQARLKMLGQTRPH

| inhibition [1] [%] | inhibition [2] [%] | inhibition [3] [%] | inhibition [4] [%] | inhibition [5] [%] | inhibition [6] [%] | inhibition [7] [%] | inhibition [8] [%] | inhibition [9] [%] | inhibition [10] [%] | inhibition [11] [%] | inhibition [12] [%] | inhibition [13] [%] | inhibition [14] [%] | inhibition [15] [%] | inhibition [16] [%] | SMILES |
| --- | --- | --- | --- | --- | --- | --- | --- | --- | --- | --- | --- | --- | --- | --- | --- | --- |
| 15 | 20 | 30 | 0 | 16 | 0 | 5 | 9 | 2 | 30 | 13 | 0 | 87 | 0 | 11 | 5 | O=C(Nc1ccccc1)Nc1ccccc1 |
| 21 | 27 | 97 | 24 | 16 | 8 | 3 | 16 | 4 | 10 | 35 | 89 | 94 | 0 | 14 | 10 | c1ccc(Nc2ncccn2)cc1 |
| 62 | 25 | 94 | 5 | 19 | 29 | 4 | 20 | 0 | 3 | 9 | 36 | 27 | 0 | 16 | 76 | c1cnc2[nH]ccc2c1 |
| 8 | 15 | 12 | 1 | 0 | 0 | 0 | 0 | 0 | 4 | 0 | 7 | 0 | 0 | 4 | 7 | Cc1ccc(NC(=O)Nc2cccc(C(F)(F)F)c2)cc1 |
| 10 | 25 | 31 | 7 | 15 | 2 | 0 | 9 | 0 | 3 | 3 | 27 | 20 | 4 | 40 | 9 | CC(C)(C)c1cc(NC(=O)Nc2ccccc2)no1 |

From ChEMBL document CHEMBL1817560, “Selectivity of kinase inhibitor fragments” (J Med Chem, 2011)
